Experimental findings from US6521631B2, “Heterocyclic sulfonamides” (Hoffmann-La Roche Inc., priority 1999, dated 2003) are described below.

For one data set, the system named is isolated rat aorta rings. To be noted: for pA2: shift to the right of the endothelin-1 dosage-activity curve, endothelium-denuded thorax aorta rings.
The target of another data set is T1, human ETA receptors (Homo sapiens, UniProt P25101).
T1 construct: made in house; host or cells: Baculovirus-infected insect cells (membrane preparation)
T1 sequence (P25101 21-427): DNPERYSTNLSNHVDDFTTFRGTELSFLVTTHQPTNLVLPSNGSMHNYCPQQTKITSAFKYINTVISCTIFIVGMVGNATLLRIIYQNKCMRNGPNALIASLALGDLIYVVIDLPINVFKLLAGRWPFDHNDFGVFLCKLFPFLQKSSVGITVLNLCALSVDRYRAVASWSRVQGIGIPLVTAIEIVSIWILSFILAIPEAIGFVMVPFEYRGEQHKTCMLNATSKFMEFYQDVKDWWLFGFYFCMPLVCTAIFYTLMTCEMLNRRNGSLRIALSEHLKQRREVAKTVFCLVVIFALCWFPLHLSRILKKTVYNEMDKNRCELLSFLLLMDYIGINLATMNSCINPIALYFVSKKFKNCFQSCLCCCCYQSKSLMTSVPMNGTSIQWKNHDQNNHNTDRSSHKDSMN
The experiment in a line: Inhibition of 125I-endothelin binding to recombinant human ETA receptors expressed in Baculovirus-infected insect cells. Conditions: recombinant human ETA receptor membranes, 20 pM 125I-endothelin; read-out: IC50, concentration required to inhibit 50% of the specific binding of 125I-endothelin. As for the experimental part: I. Inhibition of Endothelin Binding to Recombinant Human ETA Receptors Expressed in Baculovirus-infected Insect Cells
A cDNA coding for human ETA receptors of human placenta was cloned (M. Adachi, Y.-Y. Yang, Y. Furuichi and C. Miyamoto, BBRC 180, 1265-1272) and expressed in the Baculovirus-insect cell system. Baculovirus-infected insect cells from a 23 l fermenter are centrifuged off (3000×g, 15 minutes, 4° C.) 60 hours after the infection, re-suspended in Tris buffer (5 mM, pH 7.4, 1 mM MgCl2) and again centrifuged. After a further re-suspension and centrifugation the cells are suspended in 800 ml of the same buffer and freeze-dried at −120° C. The cells disintegrate when the suspension in this hypotonic buffer mixture is thawed. After a repeated […]/thawing cycle the suspension is homogenised and centrifuged (25000×g, 15 minutes, 4° C.). After suspension in Tris buffer (75 mM, pH 7.4, 25 mM MgCl2, 250 mM sucrose) 1 ml aliquots (protein content about 3.5 mg/ml) are stored at −85° C.
For the binding assay, the freeze-dried membrane preparations are thawed and, after centrifugation at 20° C. and 25000 g for 10 minutes, re-suspended in assay buffer (50 mM Tris buffer, pH 7.4, containing 25 mM MnCl2, 1 mM EDTA and 0.5% bovine serum albumin). 100 μl of this membrane suspension containing 70 μg of protein are incubated with 50 μl of ^125I-endothelin (specific activity 2200 Ci/mMol) in assay buffer (25000 cpm, final concentration 20 pM) and 100 μl of assay buffer containing varying concentrations of test compound. The incubation is carried out at 20° C. for 2 hours or at 4° C. for 24 hours. The separation of free and membrane-bound radio-ligands is carried out by filtration over a glass fibre filter. The inhibitory activity of compounds of formula (I) determined in this test procedure is given in Table 1 as the IC50, i.e. as the concentration [nM] which is required to inhibit 50% of the specific binding of ^125I-endothelin.

Structures are written as SMILES. A value given as a limit tells only on which side of the number the result lay.

Procedure for isolated rat aorta rings: Inhibition of Endothelin-induced Contractions in Isolated Rat Aorta Rings
Rings with a length of 5 mm were cut out from the thorax aorta of adult Wistar-Kyoto rats. The endothelium was removed by lightly rubbing the internal surface. Each ring was immersed at 37° C. in 10 ml of Krebs-Henseleit solution in an isolated bath while gassing with 95% O2 and 5% CO2. The isometric stretching of the rings was measured. The rings were stretched to a pre-tension of 3 g. After incubation for 10 minutes with the test compound or vehicle cumulative dosages of endothelin-1 were added. […] This shift to the right (or “dose ratio”, DR) corresponds to the quotient from the EC50 values of endothelin-1 in the presence and in the absence of antagonist, with the EC50 value denoting the endothelin concentration required for a half-maximum contraction.
The corresponding pA2 value, which is a measure of the activity of the test compound, was calculated using a computer programme according to the following equation from the “dose ratio” DR for each individual dosage-activity curve.
pA2=log(DR−1)−log(antagonist-concentration)

For `COc1ccccc1Oc1c(NS(=O)(=O)c2ccc(C)cn2)nc(-c2ccncc2)nc1OC` [Example 1, 5-methyl-pyridine-2-sulfonic acid[6-methoxy-5-(2-methoxy-phenoxy)-2-pyridin-4-yl-pyrimidin-4-yl]-amide], the pA2 entry with isolated rat aorta rings is on record as “≧8.0”. The IC50 at human ETA receptors is no more than 50 nM.

`COc1ccccc1Oc1c(NS(=O)(=O)c2ccc(C(C)C)cn2)nc(-c2ccncc2)nc1OC` [Example 2, 5-isopropyl-pyridine-2-sulfonic acid[6-methoxy-5-(2-methoxy-phenoxy)-2-pyridin-4-yl-pyrimidin-4-yl]-amide]: the melting point (as a rule, the temperature, or range, at which the solid turns liquid) lay in the range of 195 to 197 °C. The pA2 entry in the data set on isolated rat aorta rings is listed as “≧8.0”. Moreover, the IC50 at human ETA receptors is no more than 50 nM.

For `C=C(C)c1ccc(S(=O)(=O)Nc2nc(-c3ccncc3)nc(OC)c2Oc2ccccc2OC)nc1` [Example 3, 5-isopropenyl-pyridine-2-sulfonic acid[6-methoxy-5-(2-methoxy-phenoxy)-2-pyridin-4-yl-pyrimidin-4-yl]-amide], at human ETA receptors, the IC50 is no more than 50 nM.

`CC[C@H](C)[C@H](NC(=O)[C@H](CC(=O)O)NC(=O)[C@H](CC(C)C)NC(=O)[C@H](Cc1c[nH]cn1)NC(=O)[C@@H]1CSSC[C@H](N)C(=O)N[C@@H](CO)C(=O)N[C@H]2CSSC[C@H](NC(=O)[C@H](CCC(=O)O)NC(=O)[C@H](CCCCN)NC(=O)[C@H](CC(=O)O)NC(=O)[C@H](CCSC)NC(=O)[C@H](CC(C)C)NC(=O)[C@H](CO)NC(=O)[C@H](CO)NC2=O)C(=O)N[C@@H](C(C)C)C(=O)N[C@@H](Cc2ccc(O)cc2)C(=O)N[C@@H](Cc2ccccc2)C(=O)N1)C(=O)N[C@H](C(=O)N[C@@H](Cc1c[nH]c2ccccc12)C(=O)O)[C@@H](C)CC` [endothelin, reference compound]: the EC50 (usually the midpoint of the concentration-response curve) with isolated rat aorta rings (read-out: EC50 of endothelin in the absence of test compounds, endothelin concentration required for a half-maximum contraction, no antagonist) stood at 0.3 nM.
